Experimental data: US20150328109A1, “DERMAL COMPOSITIONS CONTAINING UNNATURAL HYGROSCOPIC AMINO ACIDS” (MEDPHARM LIMITED, priority 2012, published 2015)
Values joined by “and” are separate entries in the source; they are usually repeats but may differ in a detail not shown here. Identical values can stand only once.

Assays:
[1] = Deliquescence relative humidity (DRH) of a saturated solution in a sealed vessel at 32° C.; assay type: physicochemical; conditions: saturated solution in water (1 mL), 24 hours, mass used printed beside the name
Procedure: This experiment was to measure the deliquescence relative humidity (DRH) caused by a saturated amino acid solution in a sealed vessel at 32° C.; the lower the DRH, the greater the water holding capacity of the solution measured. Deliquescence relative humidity is the relative humidity at which the compound deliquesces, i.e. the relative humidity in which the compound absorbs so much water that it dissolves within the absorbed water.
The apparatus is maintained at 32° C. The temperature of 32° C. was chosen for being the temperature of outer stratum corneum. As the amino acids are to eventually be delivered to the outer layer of the skin, then the water holding capacity of these compounds at 32° C. is important.
The saturated solution is prepared as above by adding the amino acid to water (1 mL, 32° C.), whilst swirling. The total amino acid is weighed before adding to the water and the remaining amino acid so that the mass of compound used can be determined. The saturated solution (1 mL, 32° C.) is then transferred into the vial, again because of partial molar volume causing a change in volume by the addition of the amino acid to the water.
The temperature and % RH (% Relative Humidity) shown on the thermo-hygrometer are recorded every 30 minutes until the % RH remains constant. The temperature confirms that the temperature experienced by the sample is 32° C.

[2] = system: GM-CSF; experiment: GM-CSF release from in vitro psoriatic tissue model (ELISA); assay type: cell-based, human; conditions: over 6 days; 10% w/v N-H-S, 1% w/v N-H-G, 10% w/v L-h-S, 10% w/v combination 1:1:1 in water
From the text: (§1) A human cell based in vitro psoriatic tissue model consisting of psoriatic fibroblasts and normal keratinocytes was used in this study. […] GM-CSF is a key activator of the innate immune system involved in chronic inflammatory and autoimmune diseases including psoriasis (Löntz et al 1995), where macrophages, granulocytes, neutrophils, eosinophils and dendritic cells can contribute to tissue damage and disease progression (Krinner 2007). GM-CSF stimulates stem cells to produce granulocytes and other macrophages and subsequently activates these differentiated immune cells. GM-CSF has also been identified as an inflammatory mediator in autoimmune disorders with elevated levels of GM-CSF mRNA or protein being measured in a variety of inflammatory sites including in allergic and psoriatic patients, arthritic and asthmatic patients (Plater-Zyberk et al 2008). Numerous in vivo studies over the past few years have shown that blockade of GM-CSF via neutralising antibodies can prevent or even cure pro-inflammatory diseases in various models of inflammation including arthritis experimental autoimmune encephalitis, psoriasis (Schon et al 2000), and lung disease (Plater-Zyberk et al 2008). […] Due to the importance of GM-CSF in psoriasis it was selected for analysis in this study.
In this investigation two types of RHE tissues were used, which were healthy and psoriatic tissue sourced from the MatTek Corporation (Ashland, Mass.). For simplicity the protocol below refers to both tissue types as RHE tissues and all media as assay medium as both tissues were treated in the same manner. The only exception was that two different types of media were required for the different types of tissue (healthy and psoriatic tissues). […]

[3] = system: Psoriatic tissues; experiment: Tissue viability (MTT) of psoriatic tissue during 6 day treatment; assay type: cell-based, human; conditions: for irritancy conclusion from tissue viability over 6 days: 6 day dosing period; for Psoriatic tissues as a percentage of untreated control (%): 10% w/v, n = 1
From the text: as §1
In this investigation two types of RHE tissues were used, which were healthy and psoriatic tissue sourced from the MatTek Corporation (Ashland, Mass.). For simplicity the protocol below refers to both tissue types as RHE tissues and all media as assay medium as both tissues were treated in the same manner. The only exception was that two different types of media were required for the different types of tissue (healthy and psoriatic tissues).
• (i) At the end of the equilibration period, the media for each well was removed then the tissues were lifted and placed on culture stands and fresh pre-warmed (37° C.) assay medium (5 mL) was added to the well. • (ii) Using a positive displacement pipette, the test solutions 10% w/v, N-H-S(N-hydroxyserine) in water, […], N-H-G (N-hydroxyglycine) in water, 10% w/v, L-h-S (L-homoserine) in water and 10% w/v, combination 1:1:1 (N-H-S:N-H-G: L-h-S) in water were dispensed (50±0.5 μL) onto the top of the RHE tissue. The solutions or controls were then distributed over the surface of the RHE tissues using a sterile glass rod. • (iii) The lid was placed on the well plate containing the RHE tissue and the tissues were returned to the incubator (37° C., 5% CO2) 48 h between applications.
• (i) Every 48 h culture media for the RHE tissues was removed from the 6 well plates and transferred into tubes stored (−20° C.) for cytokine analysis. • (ii) Fresh pre-warmed (37° C.) assay medium (5 mL) was added to each tissue using an automatic pipette. • (iii) From each treatment 1 tissue was removed for viability assessment. • (iv) The RHE tissues were subsequently rinsed with 100 μL of PBS to remove the residual solution from the epidermal surface. • (v) Using a positive displacement pipette, the solutions 10% w/v, N-H-S in water, 1% w/v, N-H-G in water, 10% w/v, L-h-S in water and 10% w/v, combination 1:1:1 (N-H-S:N-H-G:L-h-S) were dispensed (50±0.5 μL) onto the top of the RHE tissue. The solutions or controls were then distributed over the surface of the RHE tissues using a sterile glass rod. • (vi) The lid was placed on the well plate containing the RHE tissue and the tissues were returned to the incubator (37° C., 5% CO2) 48 h between applications at t=0, 48 and 96 h. […]

Row | DRH [1] | SMILES | release of GM-CSF from psoriasis tissues compared to untreated psoriasis tissues [2] | irritancy conclusion from tissue viability over 6 days [3] | Psoriatic tissues as a percentage of untreated control (%) ([3]; 2 days in treatments) | Psoriatic tissues as a percentage of untreated control (%) ([3]; 4 days in treatments) | irritancy conclusion from tissue viability over 6 days ([3]; listed as N-H-G) | Psoriatic tissues as a percentage of untreated control (%) ([3]; 6 days in treatments) | irritancy conclusion from tissue viability over 6 days ([3]; listed as N-H-S)
1 | 71.4% and 71.37% | N[C@@H](CCO)C(=O)O [L-homoserine] | reduced | non-irritants | – | – | – | – | –
2 | 68.1% | O=C(O)CNO [N-hydroxyglycine, N-Hydroxyglycine] | reduced | non-irritants | 87.1 | 77.6 | non-irritating | 89.6 | –
3 | 68.3% | O=C(O)[C@H](CO)NO [N-hydroxyserine] | reduced | non-irritant | 94.0 | 75.3 | – | 96.0 | non-irritating
